Counter-ions that a name gives are not always drawn. Like-named read-outs stand apart in the source and are kept apart here.
What was measured:
[1] = test system: PKGIα expression in the spinal cord; assay: Western blot of PKGIα in lumbar enlargement segments 96 h after formalin injection; format: in vivo, rat; conditions: 96 h formalin-treated rats, not significant (p>0.05)
Experimental: Thirty five rats were sacrificed by decapitation at 0 h (normal control), 24 h, 48 h and 96 h after injection of saline (100 μl) or formalin (100 μl, 4%) into a hind paw. Lumbar enlargement segments of the spinal cord were dissected, quickly frozen in liquid nitrogen and stored at −80° C. for later use. Frozen tissues were homogenized in the homogenization buffer (50 mM Tris-HCl, 0.1 mM EDTA, 0.1mM EGTA, 1 mM phenylmethylsulfonyl fluoride, 1 μM leupeptin, 2 μM pepstatin A, 0.1% 2-mercaptoethanol). The crude homogenate was centrifuged at 4° C. for 15 min at 3,000×g. The supernatants (100 μg) were heated for 5 min at 90° C. and then loaded onto 4% stacking/7.5% separating SDS-polyacrylamide gels. The proteins were electrophoretically transferred onto nitrocellulose membrane and blocked with 2% non-fat dry milk and subsequently incubated for 1 h with polyclonal rabbit anti-PKGIα antibody (1:500) and with monoclonal mouse anti-endothelium NOS (eNOS) antibody (1:500) (Transduction Labs). Normal lung was used as a positive control. Specific proteins were detected using horseradish peroxidase-conjugated anti-rabbit or anti-mouse secondary antibody and visualized using chemiluminescence reagents provided with the ECL kit (Amersham Life Sciences Inc, II) and exposure to film. The intensity of blots was quantified with densitometry (Personal Densitometer/IMAGEQUANT; Molecular Dynamics).
In some experiments, rats were injected intraperitoneally (i.p.) with an NMDA receptor antagonist, MK-801 (RBI, MA), a selective neuronal NOS inhibitor (nNOS), 7-Nitroindazole (7-NI, Alexis Biochemicals, CA) and a selective sGC inhibitor, 1H-[1,2,4]oxadiazolo[4,3-a]quinoxalin-1-one (ODQ, Alexis Biochemicals, CA), each day for 4 days (96 h). The doses of MK-801, 7-NI and ODQ used in the present study were determined regarding to the previous studies (29-31). The experiments were divided into five groups. Group 1 (n=4) as control: i.p. injection of saline (0.9%, 2 ml) or peanut oil (2 ml) 30 min prior to the subcutaneous injection of saline (0.9%, 100 μl). […]

[2] = test system: mechanical allodynia induced by capsaicin; conditions: Sluka and Willis (1997); cited from earlier work
[3] = test system: NMDA-induced facilitation of the tail-flick reflex; assay: NMDA-induced facilitation of the tail-flick reflex; format: in vivo, rat
tail-flick latency = assay: Radiant heat tail-flick test, agents given alone intrathecally; format: in vivo, rat; conditions: for maximal decrease in the tail-flick latency: compared to saline-treated group
[4] = Subjective observation of animal behavior after intrathecal administration; conditions: period of 2 h, compared with control animals
[5] = test system: NMDA-produced facilitation of the tail flick reflex; conditions: pretreatment, spinal cord; Meller et al., 1992a; cited from earlier work
[6] = test system: formalin-induced pain behavior; conditions: for reduction of the number of flinches and shakes evoked by formalin: 30 μg intrathecal
Experimental: The rats were implanted with an intrathecal catheter under pentobarbital anesthesia. A polyethylene (PE-10) tube was inserted into the subarachnoid space at the rostral level of the spinal cord lumbar enlargement through an incision at the atlanto-occipital membrane according to the method of Yaksh and Rudy (27). The animals were allowed to recover for 7 to 10 days before being used experimentally. Rats showing neurological deficits postoperatively were discarded.
(§1) The drug was dissolved in distilled water before administration. The animals were randomly assigned into four groups as follows: distilled water (control) (n=12); 10 μg of Rp-8-p-CPT-cGMPS (n=6); 20 μg of Rp-8-p-CPT-cGMPS (n=6); 30 μg of Rp-8-p-CPTc-GMPS (n=6). The drug solution was injected intrathecally in a volume of 10 μl, followed by an injection of 10 μl of distilled water to flush the catheter. Fifteen minutes later, formalin (100 μl, 4%) was injected into a hind paw of the rat. In addition, four rats were alone treated intrathecally with Rp-8-p-CPT-cGMPS (30 μg) and another four rats were normal without any treatment.
Immediately following the formalin injection, each individual rat was placed in a transparent cage for observation of the formalin-injected paw. The pain-related behaviors, flinches and shakes, were assessed for the next 60 min by an experimenter who was unaware of the group assignment. The observational session was divided into two periods: a phasic period (0-10 min) and a tonic period (10-60 min). The mean number of flinches and shakes for each period of each treatment group was determined

[7] = test system: formalin-induced c-fos expression in the spinal cord; conditions: for number of Fos-positive neurons in laminae I-II, III-IV and V-VI: vs water pretreated rats; for mean reduction in number of fos-positive neurons per section: vs control group, p<0.05
Experimental: For Fos immunohistochemistry, rats were perfused one hour after the behavioral test was done as described below. The lumbar spinal cord was removed and cut into 30 μm transverse sections. Sections were processed following the above-mentioned procedures except that the primary antibody was substituted with polyclonal rabbit anti-Fos antibody (1:4,000, Santa Cruz Biotechnology, Inc., CA).
as §1

[8] = test system: NOC-12-induced decrease in the tail-flick latency; conditions: for effect on NOC-12-induced decrease in the tail-flick latency: tested 30 and 60 min, p<0.01
Experimental: Rats were anesthetized by intraperitoneal injection of pentobarbital sodium (45 mg/kg). Chronic intrathecal catheters were inserted by passing a polyethylene-10 (PE-10) catheter through an incision in the atlanto-occipital membrane to a position 8 cm caudal to the cistema at the level of the lumbar subarachinoid space. The animals were allowed to recover for a week before experiments were initiated. Rats showing neurologic deficits post-operatively were removed from the study.
Nociception was evaluated by the radiant heat tail-flick test with no anesthesia. Each rat was placed in an Animal Holder (IITC Life Science, CA, USA), 690 cm^3 in capacity with rubber stoppers in both ends with a rostral inlet and a caudal outlet. The tail of the rat protruded through the caudal hole. The tail-flick apparatus (Model 33B Tail Flick Analgesy Meter, IITC Life Science, CA, USA) generated a beam of radiant heat which was focused on the underside of the tail, 5 cm from the tip. […] Nociception was assessed by the prolongation of the time required to induce tail-flick after applying radiant heat to the skin of the tail. The latency of reflexive removal of the tail from the heat was measured automatically to the nearest 0.01 s. Tail-flick latency was measured six times and the basal latency was defined as the mean of the last five times. The tail-flick data are expressed as percentage change calculated by the formula: (trial latency—baseline latency)/(baseline latency)×100%.
The drug solution was injected intrathecally in a volume of 10 μl, followed by an injection of 10 μl of saline to flush the catheter.

[9] = 100 mg/kg i.p. in peanut oil each day for 4 days

O=[N+]([O-])c1cccc2cn[nH]c12 [7-NI, 7-Nitroindazole]
PKGIα protein level relative to group 1 (saline-injected control) [1, 9]: 1.17 fold

COC(=O)[C@@]1(OC)C[C@H]2O[C@]1(C)n1c3ccccc3c3c4c(c5c6ccccc6n2c5c31)C(=O)N(C)C4 [KT5823]
effect on mechanical allodynia induced by capsaicin [2]: reversed

C[C@]12N[C@H](Cc3ccccc31)c1ccccc12 [MK-801, dizocilpine maleate]
PKGIα protein level relative to group 1 (saline-injected control) ([1]; 2 mg/kg i.p. each day for 4 days): 1.13 fold
effect on NMDA-produced facilitation of the tail-flick reflex ([3]; prior intrathecal treatment, p<0.01): completely abolished

CN[C@H](CC(=O)O)C(=O)O [NMDA, N-methyl-D-aspartate]
tail-flick latency after intrathecal administration (tail-flick latency; intrathecal NMDA, baseline 6.58±0.57 seconds, p<0.01): 4.88 ± 0.41 s
changes in animal behavior on subjective observation [4]: caudally directed biting and scratching behaviors

CCNCCN(CC)N(O)N=O [NOC-12, N-ethyl-2-(1-ethyl-2-hydroxy-2-nitrosohydrazino)ethanamine]
maximal decrease in the tail-flick latency (tail-flick latency; 10 μg intrathecal): 5.4%
maximal decrease in the tail-flick latency (tail-flick latency; 20 μg intrathecal, p<0.01): 18.5%
maximal decrease in the tail-flick latency (tail-flick latency; 30 μg intrathecal, p<0.01): 24.9%
tail flick latency after maximal reduction (tail-flick latency; 30 μg intrathecal, baseline 6.53±0.28 seconds): 4.65 ± 0.32 s
hyperalgesia 120 min after intrathecal injection (tail-flick latency; 120 min after intrathecal injection): no longer observed
time of maximum effect on tail-flick latency (tail-flick latency; intrathecal, decrease seen from 15 to 90 min): 60 min
changes in animal behavior on subjective observation [4]: no obvious changes in animal behavior

COC(=O)[C@@H](N)CCCNC(=N)N[N+](=O)[O-] [N^G-nitro-L-arginine methyl ester]
effect on NMDA-produced facilitation of the tail flick reflex [5]: completely abolished

O=c1onc2cnc3ccccc3n12 [ODQ, 1H-[1,2,4]oxadiazolo[4,3-a]quinoxalin-1-one]
PKGIα protein level relative to group 1 (saline-injected control) [1, 9]: 1.14 fold

CCN(CC)CC.Nc1nc2c(nc(Sc3ccc(Cl)cc3)n2[C@@H]2O[C@@H]3COP(O)(=S)O[C@H]3[C@H]2O)c(=O)[nH]1 (stereo partly drawn) [Rp-8-p-CPT-cGMPS, Rp-8-[(4-Chlorophenyl)thio]-cGMPS triethylamine]
effect on the formalin response ([6]; 10 μg intrathecal, phasic or tonic period): did not influence
effect on the formalin-induced behavior ([6]; 20 μg intrathecal, phasic period): no effect
suppression of the formalin-induced behavior ([6]; 20 μg intrathecal, tonic period, p<0.01): 25%
reduction of the number of flinches and shakes evoked by formalin ([6]; phasic period (0-10 min), p<0.01): 64%
reduction of the number of flinches and shakes evoked by formalin ([6]; tonic period (10-60 min), p<0.01): 66%
number of Fos-positive neurons in laminae I-II, III-IV and V-VI ([7]; 20 μg intrathecal): significantly decreased
mean reduction in number of fos-positive neurons per section ([7]; 30 μg intrathecal, neck of dorsal horn): 51%
mean reduction in number of fos-positive neurons per section ([7]; 30 μg intrathecal, nucleus proprius): 30%
mean reduction in number of fos-positive neurons per section ([7]; 30 μg intrathecal, superficial laminae): 29%
number of Fos-positive neurons in laminae I-II, III-IV and V-VI ([7]; 30 μg intrathecal): significantly decreased
number of Fos-positive neurons in laminae VII-X ([7]; intrathecal 10, 20 and 30 μg, vs water): no significant reduction
Fos-positive neurons in the spinal cord ([7]; treatment with the agent only (30 μg intrathecal), no formalin): no Fos-positive neurons
effect on the baseline tail-flick latency (tail-flick latency; 7.5, 15 and 30 μg given alone, 15 to 120 min after administration, p>0.05): no significant effect
effect on the hyperalgesia induced by NOC-12 ([8]; 7.5 μg intrathecal, 30 μg NOC-12, p>0.05): did not influence
effect on NOC-12-induced decrease in the tail-flick latency ([8]; 15 μg intrathecal 10 min prior to 30 μg NOC-12): significantly blocked
effect on NOC-12-induced decrease in the tail-flick latency ([8]; 30 μg intrathecal 10 min prior to 30 μg NOC-12): significantly blocked
effect on the NMDA-evoked facilitation of the tail-flick reflex ([3]; 7.5 μg intrathecal, p>0.05): failed to produce significant effect
suppression of the NMDA-induced decrease of the tail-flick latency ([3]; 15 μg intrathecal prior administration, p<0.01): 13.3%
suppression of the NMDA-induced decrease of the tail-flick latency ([3]; 30 μg intrathecal prior administration, p<0.01): 20.7%
changes in animal behavior on subjective observation [4]: no obvious changes in animal behavior

CN(C)c1ccc2nc3ccc(=[N+](C)C)cc-3sc2c1 [methylene blue]
effect on NMDA-produced facilitation of the tail flick reflex [5]: completely abolished

— patent publication US6476007B2, “Isoform specific inhibition for treatment of pain and reduction of anesthetic threshold” (The Johns Hopkins University, priority 1999, dated 2002)
